Experimental data from ChEMBL document CHEMBL1155711, “Bidentatoside I, a new triterpene saponin from Achyranthes bidentata” (J Nat Prod, 2001).
The source made the active and inactive calls. The rule behind the calls is not given here.

Test system: HT-29
Assay: Potentiation of cisplatin-induced cytotoxicity in human HT-29 cells
Assay type: functional, cell-based

SMILES: CC1(C)CC[C@]2(C(=O)O[C@@H]3O[C@H](CO)[C@@H](O)[C@H](O)[C@H]3O)CC[C@]3(C)C(=CC[C@@H]4[C@@]5(C)CC[C@H](O[C@@H]6O[C@H](C(=O)O)[C@@H](O)[C@@H]7OC(O)(C(=O)O)C(OCC(=O)O)O[C@@H]67)C(C)(C)[C@@H]5CC[C@]43C)[C@@H]2C1 (stereo partly specified)
- Activity: inactive
